Assay results as given in US11297838B2, “Pesticidal compositions and methods” (CORTEVA AGRISCIENCE LLC, priority 2018, dated 2022).

How the values were obtained:
Format in all cases: in vivo
[1] = tested on: Beet Armyworm (Spodoptera exigua, LAPHEG); test: Insecticidal test for beet armyworm (BAW), 128-well diet tray assay; conditions: 168 h, tested at 5 μg/cm^2, second instar larvae, five to seven days, read-out: BAW rating, % Control (or Mortality)
[2] = tested on: Cabbage Looper (Trichloplusia ni, TRIPNI); test: Insecticidal test for cabbage looper (CL), 128-well diet tray assay; conditions: Trichoplusia ni, 168 h; tested at 5 μg/cm^2, second instar larvae, five to seven days; read-out: CL rating, % Control (or Mortality)
[3] = tested on: Yellow Fever Mosquito (Aedes aegypti, AEDSAE); conditions: about 1 day-old larvae, 4000 ppm master solution diluted, 3 days, room temperature
Method: Insecticidal Test for Yellow Fever Mosquito (Aedes aegypti, AEDSAE) (“YFM”)
Master plates containing 400 μg of a molecule dissolved in 100 μL of dimethyl sulfoxide (DMSO) (equivalent to a 4000 ppm solution) are used. A master plate of assembled molecules contains 15 μL per well. To this plate, 135 μL of a 90:10 water/acetone mixture is added to each well. A robot (Biomek® NXP Laboratory Automation Workstation) is programmed to dispense 15 μL aspirations from the master plate into an empty 96-well shallow plate (“daughter” plate). There are 6 reps (“daughter” plates) created per master. The created “daughter” plates are then immediately infested with YFM larvae.
The day before plates are to be treated, mosquito eggs are placed in Millipore water containing liver powder to begin hatching (4 g. into 400 mL). After the “daughter” plates are created using the robot, they are infested with 220 μL of the liver powder/larval mosquito mixture (about 1 day-old larvae). After plates are infested with mosquito larvae, a non-evaporative lid is used to cover the plate to reduce drying. Plates are held at room temperature for 3 days prior to grading. After 3 days, each well is observed and scored based on mortality. In the reporting of the results, the “YFM Rating Table” was used.

[4] = tested on: Beet Armyworm (Spodoptera exigua, LAPHEG); test: Insecticidal test for beet armyworm (BAW), 128-well diet tray assay; conditions: 168 h, 50 μg/cm^2 on artificial diet, second instar larvae, five to seven days, 25° C., read-out: BAW rating, % Control (or Mortality)
[5] = tested on: Cabbage Looper (Trichloplusia ni, TRIPNI); test: Insecticidal test for cabbage looper (CL), 128-well diet tray assay; conditions: Trichoplusia ni, 168 h; 50 μg/cm^2 on artificial diet, second instar larvae, five to seven days, 25° C.; read-out: CL rating, % Control (or Mortality)

| Structure (SMILES) | mortality at 5 µg/cm2 [1] | mortality at 5 µg/cm2 [2] | YFM rating, % Control (or Mortality) [3] | mortality at 50 µg/cm2 [4] | mortality at 50 µg/cm2 [5] |
| --- | --- | --- | --- | --- | --- |
| Cc1ccc(C(C)C)c(N2C(=O)CS/C2=N\C(=O)OCC(F)c2ccc(-c3ncn(-c4ccc(OC(F)(F)C(F)(F)F)cc4)n3)cc2)c1 (centres unmarked) [A26, 2-Fluoro-2-(4-(1-(4-(perfluoroethoxy)phenyl)-1H-1,2,4-triazol-3-yl)phenyl)ethyl (Z)-(3-(2-isopropyl-5-methylphenyl)-4-oxothiazolidin-2-ylidene)carbamate] | 50 to 100% | 0 to 50% | – | – | – |
| O=C(/N=C1\SCC(=O)N1c1ccccc1CCC(F)(F)F)OCCc1ccc(-c2ncn(-c3ccc(OC(F)(F)F)cc3)n2)cc1 [A8, 4-(1-(4-(Trifluoromethoxy)phenyl)-1H-1,2,4-triazol-3-yl)phenethyl (Z)-(4-oxo-3-(2-(3,3,3-trifluoropropyl)phenyl)thiazolidin-2-ylidene)carbamate] | – | – | A (80-100) | 50 to 100% | 50 to 100% |
| CCCc1ccc(C)cc1N1C(=O)CS/C1=N\C(=O)OCCc1ccc(-c2ncn(-c3ccc(OC(F)(F)F)cc3)n2)cc1 [A15, 4-(1-(4-(Trifluoromethoxy)phenyl)-1H-1,2,4-triazol-3-yl)phenethyl (Z)-(3-(5-methyl-2-propylphenyl)-4-oxothiazolidin-2-ylidene)carbamate] | – | – | A (80-100) | 50 to 100% | 50 to 100% |
| COc1ccc(N2C(=O)CS/C2=N\C(=O)OCCc2ccc(-c3ncn(-c4ccc(OC(F)(F)F)cc4)n3)cc2)c(C)c1 [A10, 4-(1-(4-(Trifluoromethoxy)phenyl)-1H-1,2,4-triazol-3-yl)phenethyl (Z)-(3-(4-methoxy-2-methylphenyl)-4-oxothiazolidin-2-ylidene)carbamate] | – | – | A (80-100) | 0% | 50 to 100% |
| CCCCc1ccccc1N1C(=O)CS/C1=N\C(=O)OCCc1ccc(-c2ncn(-c3ccc(OC(F)(F)F)cc3)n2)cc1 [A6, 4-(1-(4-(Trifluoromethoxy)phenyl)-1H-1,2,4-triazol-3-yl)phenethyl (Z)-(3-(2-butylphenyl)-4-oxothiazolidin-2-ylidene)carbamate] | – | – | A (80-100) | 50 to 100% | 50 to 100% |
| Cc1ccc(Cl)c(N2C(=O)CS/C2=N\C(=O)OCCc2ccc(-c3ncn(-c4ccc(OC(F)(F)F)cc4)n3)cc2)c1 [A12, 4-(1-(4-(Trifluoromethoxy)phenyl)-1H-1,2,4-triazol-3-yl)phenethyl (Z)-(3-(2-chloro-5-methylphenyl)-4-oxothiazolidin-2-ylidene)carbamate] | – | – | A (80-100) | 50 to 100% | 50 to 100% |
| CC(C)c1ccccc1N1C(=O)CS/C1=N\C(=O)OCCc1ccc(-c2ncn(-c3ccc(OC(F)(F)F)cc3)n2)cc1 [A2, 4-(1-(4-(Trifluoromethoxy)phenyl)-1H-1,2,4-triazol-3-yl)phenethyl (Z)-(3-(2-isopropylphenyl)-4-oxothiazolidin-2-ylidene)carbamate] | – | – | A (80-100) | 50 to 100% | 50 to 100% |
